target: T1, D2 DAR (Homo sapiens, UniProt P14416); experiment: D2 Ca^2+ screen assay (calcium accumulation, HEK293 T-REx with Gqi5); assay type: cell-based; settings: dopamine D2 calcium release assay of Example 1; read-out: Ca^2+ AC50
T1 construct: expressed in transfected cells; host or cells: HEK293 T-REx, Tet-inducible, with chimeric G-protein Gqi5
Method: The resting concentration of calcium ions (Ca^2+) in the cells' cytoplasm is normally maintained in the range of 10-100 nM. To maintain this low concentration, Ca^2+ is actively pumped from the cytosol to the extracellular space and into the endoplasmic reticulum (ER), and sometimes into the mitochondria. Signaling occurs when the cell is stimulated to release Ca^2+ from intracellular stores. The most common signaling pathway that increases cytoplasmic calcium concentration is the phospholipase C (PLC) pathway. […] IP3 diffuses to the ER, binds to its receptor (IP3 receptor), which is a Ca^2+ channel and, thus, releases Ca^2+ from the ER to the cytosol. To measure this cytosolic Ca^2+ accumulation, we used the Screen Quest™ Fluo-8 Calcium Assay Kit (AAT Bioquest, Sunnyvale, Calif.). Acetoxymethyl (AM) esters bound to Fluo-8™ dye are non-polar molecules that easily cross live cell membranes transporting the dye inside the cell, and are then rapidly hydrolyzed by cellular esterases inside live cells. As Fluo-8™ is freed from AM esters, it binds to Ca^2+ and emits a fluorescent signal at 514 nm that escalates with increasing cytosolic Ca^2±. To measure this calcium flux signal, we used the Functional Drug Screening System (FDSS) (Hamamatsu, Japan), a high throughput screening device that allows optical detection of signal transmissions within living cells in a time-resolving fashion. […] Quest Fluo-8™ calcium reagent was freshly prepared prior to adding to the cells (lyophilized Fluo-8™ dye provided with the kit was re-suspended in 200 μL DMSO as a 500× stock and stored at −20° C.). 2 μL/well of Quest Fluo-8™ calcium dye diluted in HBSS +10 mM HEPES buffer (for every 10 mL buffer, 1 mL of 10× quencher provided in the kit and 20 μL of 500×DMSO stock dye were added) was added to cells with a Multi-Drop Combi (ThermoScientific) and incubated for 45-90 min in the dark at ambient temperature. Then, the plates were introduced into the FDSS where they were pinned with 23 nL of test compound or dopamine controls and were read by FDSS in non-stimulated mode for 180 sec for detection of agonists. […]

T1 sequence (P14416 whole entry): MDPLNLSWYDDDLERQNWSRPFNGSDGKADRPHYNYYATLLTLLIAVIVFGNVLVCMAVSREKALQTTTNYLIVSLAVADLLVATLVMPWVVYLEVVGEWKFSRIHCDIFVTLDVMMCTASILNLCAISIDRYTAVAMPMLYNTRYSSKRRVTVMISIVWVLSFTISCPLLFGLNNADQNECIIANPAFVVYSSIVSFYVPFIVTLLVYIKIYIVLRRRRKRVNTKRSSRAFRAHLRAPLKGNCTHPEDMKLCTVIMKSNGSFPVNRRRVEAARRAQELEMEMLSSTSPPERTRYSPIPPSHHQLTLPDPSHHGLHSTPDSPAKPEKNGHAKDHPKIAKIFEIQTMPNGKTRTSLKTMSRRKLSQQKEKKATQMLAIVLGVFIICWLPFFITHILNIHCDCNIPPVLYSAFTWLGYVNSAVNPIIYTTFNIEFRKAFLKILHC

AC50, < 1000 nM:
CCN1C(=O)c2ccccc2[S+]([O-])c2ccc(C(=O)NCc3cccc(OC)c3)cc21 (stereo not drawn) [Compound 2, 10-Ethyl-N-(3-methoxybenzyl)-11-oxo-10,11-dihydrodibenzo[b,f][1,4]thiazepine-8-carboxamide 5-oxide]
CCN1C(=O)c2ccccc2[S+]([O-])c2ccc(C(=O)NCc3ccccc3)cc21 (stereo not drawn) [Compound 4, N-Benzyl-10-ethyl-11-oxo-10,11-dihydrodibenzo[b,f][1,4]thiazepine-8-carboxamide 5-oxide]
CCN1C(=O)c2ccccc2[S+]([O-])c2ccc(C(=O)NC(C)c3ccccc3)cc21 (stereo not drawn) [Compound 5, 10-Ethyl-11-oxo-N-(1-phenylethyl)-10,11-dihydrodibenzo[b,f][1,4]thiazepine-8-carboxamide 5-oxide]
CCN1C(=O)c2ccccc2[S+]([O-])c2ccc(C(=O)NCc3ccc(SC)cc3)cc21 (stereo not drawn) [Compound 6, 10-Ethyl-N-(4-(methylthio)benzyl)-11-oxo-10,11-dihydrodibenzo[b,f][1,4]thiazepine-8-carboxamide 5-oxide]
CCN1C(=O)c2ccccc2[S+]([O-])c2ccc(C(=O)NCc3ccc(C(C)(C)C)cc3)cc21 (stereo not drawn) [Compound 7, N-(4-tert-Butylbenzyl)-10-ethyl-11-oxo-10,11-dihydrodibenzo[b,f][1,4]thiazepine-8-carboxamide 5-oxide]
CCN1C(=O)c2ccccc2[S+]([O-])c2ccc(C(=O)NCc3ccc(C)cc3)cc21 (stereo not drawn) [Compound 8, 10-Ethyl-N-(4-methylbenzyl)-11-oxo-10,11-dihydrodibenzo[b,f][1,4]thiazepine-8-carboxamide 5-oxide]
CCN1C(=O)c2ccccc2[S+]([O-])c2ccc(C(=O)NCc3ccc(C(F)(F)F)cc3)cc21 (stereo not drawn) [Compound 9, 10-Ethyl-11-oxo-N-(4-(trifluoromethyl)benzyl)-10,11-dihydrodibenzo[b,f][1,4]thiazepine-8-carboxamide 5-oxide]
CCN1C(=O)c2ccccc2[S+]([O-])c2ccc(C(=O)NCc3ccc(F)cc3)cc21 (stereo not drawn) [Compound 10, 10-Ethyl-N-(4-fluorobenzyl)-11-oxo-10,11-dihydrodibenzo[b,f][1,4]thiazepine-8-carboxamide 5-oxide]
CCN1C(=O)c2ccccc2[S+]([O-])c2ccc(C(=O)NCc3ccc(Cl)cc3)cc21 (stereo not drawn) [Compound 11]
CCN1C(=O)c2ccccc2[S+]([O-])c2ccc(C(=O)NCc3ccc(C#N)cc3)cc21 (stereo not drawn) [Compound 12, N-(4-Cyanobenzyl)-10-ethyl-11-oxo-10,11-dihydrodibenzo[b,f][1,4]thiazepine-8-carboxamide 5-oxide]
CCN1C(=O)c2ccccc2[S+]([O-])c2ccc(C(=O)NCc3ccc(S(C)(=O)=O)cc3)cc21 (stereo not drawn) [Compound 13, 10-Ethyl-N-(4-(methylsulfonyl)benzyl)-11-oxo-10,11-dihydrodibenzo[b,f][1,4]thiazepine-8-carboxamide 5-oxide]
CCN1C(=O)c2ccccc2[S+]([O-])c2ccc(C(=O)NCc3ccc4c(c3)OCO4)cc21 (stereo not drawn) [Compound 15, N-(benzo[d][1,3]dioxol-5-ylmethyl)-10-ethyl-11-oxo-10,11dihydrodibenzo[b,f][1,4]thiazepine-8-carboxamide 5-oxide]
CCN1C(=O)c2ccccc2[S+]([O-])c2ccc(C(=O)Nc3ccccc3)cc21 (stereo not drawn) [Compound 16, 10-Ethyl-11-oxo-N-phenyl-10,11-dihydrodibenzo[b,f][1,4]thiazepine-8-carboxamide 5-oxide]
CCN1C(=O)c2ccccc2[S+]([O-])c2ccc(C(=O)Nc3ccc(OC)cc3)cc21 (stereo not drawn) [Compound 17, 10-Ethyl-N-(4-methoxyphenyl)-11-oxo-10,11-dihydrodibenzo[b,f][1,4]thiazepine-8-carboxamide 5-oxide]
CCN1C(=O)c2ccccc2[S+]([O-])c2ccc(C(=O)NCCc3ccc(OC)cc3)cc21 (stereo not drawn) [Compound 18, 10-Ethyl-N-(4-methoxyphenethyl)-11-oxo-10,11-dihydrodibenzo[b,f][1,4]thiazepine-8-carboxamide 5-oxide]
COc1ccc(CNC(=O)c2ccc3c(c2)N(C)C(=O)c2ccccc2[S+]3[O-])cc1 (stereo not drawn) [Compound 20, N-(4-Methoxybenzyl)-10-methyl-11-oxo-10,11-dihydrodibenzo[b,f][1,4]thiazepine-8-carboxamide 5-oxide]
CCCN1C(=O)c2ccccc2[S+]([O-])c2ccc(C(=O)NCc3ccc(OC)cc3)cc21 (stereo not drawn) [Compound 21, N-(4-Methoxybenzyl)-11-oxo-10-propyl-10,11-dihydrodibenzo[b,f][1,4]thiazepine-8-carboxamide 5-oxide]
COc1ccc(NC(=O)c2ccc3c(c2)N(C)C(=O)c2ccccc2[S+]3[O-])cc1 (stereo not drawn) [Compound 24, N-(4-Methoxyphenyl)-10-methyl-11-oxo-10,11-dihydrodibenzo[b,f][1,4]thiazepine-8-carboxamide 5-oxide]
CN1C(=O)c2ccccc2[S+]([O-])c2ccc(C(=O)NCc3ccccc3)cc21 (stereo not drawn) [Compound 25, N-Benzyl-10-methyl-11-oxo-10,11-dihydrodibenzo[b,f][1,4]thiazepine-8-carboxamide 5-oxide]
CN1C(=O)c2ccccc2[S+]([O-])c2ccc(C(=O)NCc3ccc(F)cc3)cc21 (stereo not drawn) [Compound 26, N-(4-Fluorobenzyl)-10-methyl-11-oxo-10,11-dihydrodibenzo[b,f][1,4]thiazepine-8-carboxamide 5-oxide]
CN1C(=O)c2ccccc2[S+]([O-])c2ccc(C(=O)NCc3ccc(Cl)cc3)cc21 (stereo not drawn) [Compound 27, N-(4-Chlorobenzyl)-10-methyl-11-oxo-10,11-dihydrodibenzo[b,f][1,4]thiazepine-8-carboxamide 5-oxide]
CN1C(=O)c2ccccc2[S+]([O-])c2ccc(C(=O)NCc3cccc(Cl)c3)cc21 (stereo not drawn) [Compound 28, N-(3-Chlorobenzyl)-10-methyl-11-oxo-10,11-dihydrodibenzo[b,f][1,4]thiazepine-8-carboxamide 5-oxide]
CN1C(=O)c2ccccc2[S+]([O-])c2ccc(C(=O)NCc3ccc(Br)cc3)cc21 (stereo not drawn) [Compound 29, N-(4-Bromobenzyl)-10-methyl-11-oxo-10,11-dihydrodibenzo[b,f][1,4]thiazepine-8-carboxamide 5-oxide]
CN1C(=O)c2ccccc2[S+]([O-])c2ccc(C(=O)NCc3cccnc3)cc21 (stereo not drawn) [Compound 31, 10-Methyl-11-oxo-N-(pyridin-3-ylmethyl)-10,11-dihydrodibenzo[b,f][1,4]thiazepine-8-carboxamide 5-oxide]
CN1C(=O)c2ccccc2[S+]([O-])c2ccc(C(=O)NCCN3CCCC3)cc21 (stereo not drawn) [Compound 33, 10-Methyl-11-oxo-N-(2-(pyrrolidin-1-yl)ethyl)-10,11-dihydrodibenzo[b,f][1,4]thiazepine-8-carboxamide 5-oxide]
CN1C(=O)c2ccccc2[S+]([O-])c2ccc(C(=O)NCCN3CCCCC3)cc21 (stereo not drawn) [Compound 34, 10-Methyl-11-oxo-N-(2-(piperidin-1-yl)ethyl)-10,11-dihydrodibenzo[b,f][1,4]thiazepine-8-carboxamide 5-oxide]
CN(C)CCCNC(=O)c1ccc2c(c1)N(C)C(=O)c1ccccc1[S+]2[O-] (stereo not drawn) [Compound 35, N-(3-(Dimethylamino)propyl)-10-methyl-11-oxo-10,11-dihydrodibenzo[b,f][1,4]thiazepine-8-carb oxamide 5-oxide]
CCN1C(=O)c2ccccc2Sc2ccc(C(=O)NCc3ccc(OC)cc3)cc21 [Compound 36, 10-Ethyl-N-(4-methoxybenzyl)-11-oxo-10,11-dihydrodibenzo[b,f][1,4]thiazepine-8-carboxamide]
CCN1C(=O)c2ccccc2[S+]([O-])c2ccc(NC(=O)Cc3ccc(OC)cc3)cc21 (stereo not drawn) [Compound 45, N-(10-Ethyl-11-oxo-10,11-dihydrodibenzo[b,f][1,4]thiazepin-8-yl)-2-(4-methoxyphenyl)acetamide 5-oxide]
CCN1C(=O)c2ccccc2[S+]([O-])c2ccc(NC(=O)Cc3ccc(F)cc3)cc21 (stereo not drawn) [Compound 46, N-(10-Ethyl-11-oxo-10,11-dihydrodibenzo[b,f][1,4]thiazepin-8-yl)-2-(4-fluorophenyl)acetamide 5-oxide]
